From patent US7604990B2, “Methods of regulating differentiation in stem cells” (ES Cell International Pte Ltd., priority 2002, dated 2009)
“Also recorded” adds a separate entry of the source.

Tests used:
Format in all cases: cell-based, human
[1] = test system: hES cells; assay: ELISA-based GCTM-2 quantification in hES cells (Example 2)
Procedure: (§1) hES-3 cells were cultured as previously described^1. The serum-free culture medium consisted of DMEM (without sodium pyruvate, glucose 4500 mg/l, Invitrogen, Mount Waverley, VIC, Australia) supplemented with insulin/transferrin/selenium 1%, β-mercaptoethanol 0.1 mM, NEAA 1%, glutamine 2 mM, Hepes 25 mM, penicillin 50 U/ml and streptomycin […] (all from Invitrogen). Media was changed every 2 days and cells were passaged every week S1P and dihydro-S1P were obtained from Biomol (Plymouth Meeting, Pa., USA). LPA was obtained from Sigma (Castle Hill, NSW, Australia). Extemporaneous dilutions of all lipids were made in water containing 0.1% fatty acid-free bovine serum albumin (BSA) (Sigma). S1P and dihydro-S1P were used at 10 mM. Human PDGF-AB, PDGF-AA, PDGF-BB were from Prepro Tech Inc. (Rocky Hill, N.J., USA) and were used at 20 ng/ml.
Cells were fixed in 100% ethanol and immunostained with GCTM-2 followed by alkaline phosphatase-coupled secondary antibodies (Dako). Alkaline phosphatase activity was detected by adding a solution of 4-nitrophenyl phosphate (Roche), and the concentration of the reaction product was determined by reading the optical density (OD) at 405 nm. In order to validate the technique as an accurate indicator of the proportion of GCTM-2 positive cells, standard curves were carried out with the embryonal carcinoma cell line GCT27C4, known to express GCTM-2^20.

[2] = test system: ERKs (Erk1 and Erk2) in hES cells; assay: ERK phosphorylation Western blot in hES cells (Example 1)
Procedure: RT-PCR for LPL receptors (A, B), PDGFR-[…] (alpha) and PDGFR-[…] (beta) (C), SPK-1 and SPK-2 (D), with (+) or without (−) RT. Immunostaining of hES cells with Hoechst 33342 (E, H), PDGFR-[…] (F) or PDGFR-[…] (I) and GCTM-2 (G, J) antibodies. S1P, LPA and PDGF stimulate ERKs phosphorylation in hES cells. (K) Western blots experiment were performed using protein lysate from hES cells. Cells were pre-treated or not with U0126 (30 μM, 1 hr) and incubated for 5 min in the absence (C, control) or presence of S1P (S, 10 μM), LPA (L, […]) or PDGF (P, 20 ng/ml). The phosphorylation of Erk1 and Erk2 (P-Erk1 and P-Erk2) was assessed by immunoblotting with a polyclonal anti-active MAP kinase as described in Materials and Methods. After a stripping procedure, the same blots were reprobed with a monoclonal anti-MAP kinase, allowed the detection of Erk1 and Erk2.
hES-3 cells plated without MEF for 24 hrs were depleted of serum for a further 18 hrs. Cells pre-treated or not with U0126 (Sigma, 30 μM, 1 hr), were incubated in the presence of the different agents for 5 min and were lysed by removal of the supernatants and addition of a reducing loading buffer containing 1 mM sodium orthovanadate (Sigma). Protein lysates (approx. 80 μg) were separated by SDS-polyacrylamide gel electrophoresis (10% polyacrylamide, w/v), transferred to nitrocellulose (Hybond-nitrocellulose, Amersham) and immunoblotting was carried out using rabbit polyclonal anti-active mitogen-activated protein (MAPK) antibodies raised against a dually phosphorylated MAPK peptide (Promega, Madison, Wis., USA). Peroxidase-coupled secondary antibody (Dako) was detected by exposure of autoradiographic films in the presence of a chemiluminescent detection reagent (ECL, Amersham). Stripping of antibodies was achieved and membranes were then reprobed with rabbit polyclonal anti-ERK1/2 antibodies (Promega), and then with peroxidase-coupled secondary antibodies (Dako). Membranes probed with either rabbit polyclonal anti-active p38 (Promega) or rabbit polyclonal anti-active JNK (Promega) antibodies were also performed, using the same procedure as described above.

[3] = test system: ERKs (Erk1 and Erk2) in hES cells; assay: ERK phosphorylation Western blot in hES cells (Example 5); details: U0126 30 μM, 1 hr pre-treatment
Procedure: Western blots experiments were performed using protein lysate from hES cells. (A) Cells were pre-treated or not with U0126 (30 μM, 1 hr) and incubated for 5 min in the absence (C, control) or presence of S1P (10 μM). (B) Cells were incubated for different time periods in the absence or presence of S1P (10 μM). (C) Cells were incubated for 5 min with various concentrations of S1P. The phosphorylation of Erk1 and Erk2 (P-Erk1 and P-Erk2) was assessed by immunoblotting with a polyclonal anti-active MAP kinase as described in Materials and Methods. After a stripping procedure, the same blots reprobed with a monoclonal anti-MAP kinase, allowed the detection of Erk1 and Erk2.
For immunoblot analysis, cells were transferred into 24 well plates (8 colonies per well) without MEFs, and 24 hr later, were grown in the absence of serum for 18 hrs.
In some experiments, cells were pre-treated for 1 hr with U0126 (30 μM) or for 18 hrs with PTX (100 μg/ml).
hES3 cells were lysed following removal of the supernatants by addition of a reducing loading buffer (2% SDS, 62.5 mM Tris pH 6.8, 0.1 M DTT, 0.01% bromophenol blue) containing 1 mM sodium orthovanadate. Samples were boiled for 10 min and centrifuged at 13000 g for 15 min, and protein lysates (approx. 80 μg) were separated by SDS-polyacrylamide gel electrophoresis (10% polyacrylamide, w/v). Proteins were transferred to nitrocellulose (Hybond-ECL, Amersham) and immunoblotting was carried out with rabbit polyclonal anti-active mitogen-activated protein (MAPK) antibodies raised against a dually phosphorylated MAPK peptide (Promega, Madison, Wis., USA). Peroxidase-coupled secondary antibody (Dako) was detected by exposure of autoradiographic films in the presence of a chemiluminescent detection reagent (ECL, Amersham). Stripping of antibodies was achieved by incubating the membrane during 30 min at 50° C. in a buffer containing 100 mM mercaptoethanol, 2% SDS, 62.5 mM Tris-HCl pH 6.7. The membrane was then reprobing with rabbit polyclonal anti-ERK1/2 antibodies (Promega), and then with peroxidase-coupled secondary antibodies (Dako).

[4] = test system: hES cells; assay: Direct observation of hES colonies in serum-depleted medium (Example 4)
Procedure: (A) hES cells grown with feeder, before the depletion in serum. (B) hES cells grown without serum after 8 days (B, C) and 12 days (D, E), in absence (B, D) or presence of S1P (C, E, 10 μM).
For direct observation, hES-3 cells were coated into 12-well plates (3 colonies per well), with or without mouse embryonic feeders (MEFs). The day following the plating, cells were incubated with the different agents in serum free medium containing insulin, transferring and selenium. Media was changed the 2nd day and then every 2 days.

[5] = test system: hES cells; assay: Spontaneous differentiation of hES colonies on MEF in serum-free medium, morphology (Example 2); details: 2 weeks serum-free on MEF; S1P 10 μM, PDGF-AB 20 ng/ml, LPA up to 50 μM
Procedure: as §1, with “S1P and dihydro-S1P were used at 10 mM.” left out

[6] = test system: hES cells; assay: Spontaneous differentiation of hES colonies on MEF in serum-free medium, morphology (Example 1); details: 8 days serum-free on MEF; S1P 10 μM, PDGF 20 ng/ml, LPA up to 50 μM
Procedure: (A) hES cells grown with MEF, before the depletion of serum from the medium. (B, C, D, E) hES cells grown without serum after 8 days, in the absence (B) or in the presence of S1P (10 μM) (C), PDGF (20 ng/ml) (D), S1P (10 μM) plus PDGF (20 ng/ml) (E). (F) hES cells grown without serum, in the presence or in the absence (control) of S1P (10 μM), PDGF (20 ng/ml), S1P (10 μM) plus PDGF (20 ng/ml). In A-E, data are representative of at least 3 independent experiments. In F, data expressed as percentages of alkaline phosphatase activity in absence of serum for eight days (% of control), are the means±SEM of at least 2 independent experiments, each run in triplicate.
hES-3 cells were cultured as previously described^1. The serum-free culture medium consisted of DMEM (without sodium pyruvate, glucose 4500 mg/l, Invitrogen, Mount Waverley, VIC, Australia) supplemented with insulin/transferrin/selenium 1%, β-mercaptoethanol 0.1 mM, NEAA 1%, glutamine 2 mM, Hepes 25 mM, penicillin 50 U/ml and streptomycin […] (all from Invitrogen). Medium was changed every 2 days and cells were passaged every week. S1P and dihydro-S1P were obtained from Biomol (Plymouth Meeting, Pa., USA) and were dissolved in methanol. LPA was obtained from Sigma (Castle Hill, NSW, Australia) and was dissolved in ethanol. Extemporaneous dilutions of all lipids were made in water containing 0.1% fatty acid-free bovine serum albumin (BSA) (Sigma). Human PDGF-AB, PDGF-AA, PDGF-BB were from PreproTech Inc. (Rocky Hill, N.J., USA).

Which “effect on PDGF and S1P action (GCTM2)” value ([1]; DMS 3 µM for 7 days) does the source give for `CCCCCCCCCCCCC/C=C/[C@@H](O)[C@H](CO)N(C)C` [DMS, dimethylsphingosine] here?
Its value is “inhibited the effect of PDGF and S1P”.

For `N#CC(=C(/N)Sc1ccccc1N)/C(C#N)=C(\N)Sc1ccccc1N` [U0126], which “effect on PDGF and S1P action on GCTM2 expression” value ([1]; U0126 10 mM for 7 days) is on record?
The value was “totally inhibited”.

And the “effect on S1P-, LPA- and PDGF-stimulated phosphorylation of ERKs” value ([2]; U0126 30 μM, 1 hr pre-treatment)?
Its value is “totally inhibited”.

And the “effect on S1P-stimulated phosphorylation of ERKs” value [3]?
The value was “totally inhibited”.

How did the “growth/differentiation of hES colonies on MEFs” value ([4]; S1P 10 μM 8 days, LPA up to 50 μM 12 days) turn out when lysophosphatidic acid [LPA] was run?
The value was “did not seem to affect the growth of the colonies; also recorded: inactive”.

What about the “effect on cell differentiation, hES cells grown without MEFs” value ([4]; without MEFs, n=3) of the same molecule?
Its value is “lack of effect”.

What about the “phosphorylation of ERKs” value ([2]; hES cells, 5 min, S1P 10 μM, LPA 50 M, PDGF 20 ng/ml) of the same molecule?
Its value is “stimulated the phosphorylation of ERKs”.

What about the “size or morphology of hES cell colonies (spontaneous differentiation)” value [5] of the same molecule?
The value was “no obvious effect on size or morphology”.

What about the “colony growth/morphology (spontaneous differentiation)” value [6] of the same molecule?
The value was “did not have an obvious effect on growth of the colonies”.
